# Like-named read-outs stand apart in the source and are kept apart here.
# Assays:
# [1] = tested on: fMLF/CB-activated neutrophils; test: Elastase release in fMLF/CB-activated neutrophils; type: cell-based; details: for IC50: read-out: IC50 HNE (NE activity / elastase release)
# Procedure: (§1) All assays were performed as described previously[58],[59]. Neutrophils isolated from the blood of healthy volunteers (20–30 years old) were resuspended in a Ca^2+-free HBSS buffer (pH 7.4) at 4 °C before use. O2^.− generation was measured based on reduction of ferricytochrome c. In brief, after supplementation with 0.5 mg/ml ferricytochrome c and 1 mM Ca^2+, neutrophils were equilibrated at 37 °C for 2 min and incubated with the specified drugs for 5 min. Neutrophils were activated using 30 nM fMLF or 100 nM LTB4 for 10 min after addition of cytochalasin B (CB, 1 μg/mL) for 3 min. Changes in absorbance concomitant with reduction of ferricytochrome c at 550 nm were continuously monitored. For elastase release, neutrophils (6 × 10^5 cells/mL) were mixed with methoxysuccinyl-Ala-Ala-Pro-Val-pNA (100 μM) substrate at 37 °C for 5 min. […] Inhibition of superoxide generation and elastase release were calculated in keeping with previous reports.
# Human cathepsin G = target: T1, Human cathepsin G (Homo sapiens, UniProt P08311); test: Serine protease enzyme inhibition assay, cathepsin G; type: biochemical; details: mean ± S.E.M. (n ≥ 3)
# T1 construct: purchased Enzo BML-SE283
# T1 sequence (P08311 21-255): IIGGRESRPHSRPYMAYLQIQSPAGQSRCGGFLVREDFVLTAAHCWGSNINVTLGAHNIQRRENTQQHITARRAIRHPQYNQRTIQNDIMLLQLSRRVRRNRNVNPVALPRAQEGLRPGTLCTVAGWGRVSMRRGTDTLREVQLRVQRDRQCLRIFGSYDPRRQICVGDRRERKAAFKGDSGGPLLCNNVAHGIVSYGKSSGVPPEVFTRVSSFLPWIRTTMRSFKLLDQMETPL
# Human proteinase 3 = target: T2, Human proteinase 3 (Homo sapiens, UniProt P24158); test: Serine protease enzyme inhibition assay, proteinase 3; type: biochemical; details: mean ± S.E.M. (n ≥ 3)
# T2 construct: purchased Merk 539483
# T2 sequence (P24158 28-256): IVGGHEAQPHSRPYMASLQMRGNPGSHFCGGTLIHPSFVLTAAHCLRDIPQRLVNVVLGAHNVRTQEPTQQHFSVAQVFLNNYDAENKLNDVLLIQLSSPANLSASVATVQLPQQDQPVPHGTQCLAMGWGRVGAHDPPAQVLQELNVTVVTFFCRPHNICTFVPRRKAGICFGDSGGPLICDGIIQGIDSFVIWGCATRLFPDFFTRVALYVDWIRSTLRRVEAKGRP
# Human thrombin = Human thrombin (Homo sapiens, UniProt P00734); test: Serine protease enzyme inhibition assay, thrombin
# [2] = tested on: fMLF/CB-activated neutrophils; test: O2.- generation in fMLF/CB-activated neutrophils (ferricytochrome c reduction); type: cell-based, human; details: for IC50 / IC50 O2^.− generation: fMLF/CB-activated human neutrophils
# Procedure: as §1
# [3] = target: T3, Human neutrophil elastase (Homo sapiens, UniProt P08246); test: Serine protease enzyme inhibition assay, HNE; type: biochemical; details: for Inh % (HNE inhibition): at 30 M (so in the source)
# T3 construct: purchased Enzo BML-SE284
# T3 sequence (P08246 30-267): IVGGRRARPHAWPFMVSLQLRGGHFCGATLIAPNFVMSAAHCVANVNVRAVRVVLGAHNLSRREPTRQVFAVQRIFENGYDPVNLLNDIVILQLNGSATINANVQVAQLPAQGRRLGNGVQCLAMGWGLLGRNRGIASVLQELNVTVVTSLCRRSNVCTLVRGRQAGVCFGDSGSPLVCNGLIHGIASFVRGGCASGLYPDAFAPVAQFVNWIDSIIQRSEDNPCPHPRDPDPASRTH
# Bovine chymotrypsin = target: T4, Bovine chymotrypsin (Bos taurus, UniProt P00766); test: Serine protease enzyme inhibition assay, chymotrypsin; type: biochemical; details: mean ± S.E.M. (n ≥ 3)
# T4 construct: purchased Sigma-Aldrich C4129
# [4] = fMLF/CB-activated human neutrophils
# [5] = read-out: IC50 Thrombin, enzyme assay, mean ± S.E.M. (n ≥ 3)
# [6] = enzyme assay, mean ± S.E.M. (n ≥ 3), read-out: IC50 HNE
# [7] = Neutrophil, fMLF/CB-activated human neutrophils
# [8] = Table S3, read-out: IC50 HNE inhibitory activity
Compound,"IC50 [1, 4]",IC50 (Human cathepsin G),IC50 (Human proteinase 3),IC50 (Human thrombin; [5]),IC50 [2],"IC50 [3, 6]",IC50 (Bovine chymotrypsin),Inh % (HNE inhibition) ([3]; Table S3),IC50 ([2]; Neutrophil),"IC50 ([1]; Homo sapiens, Neutrophil)",IC50 O2^.− generation [2],"IC50 [3, 8]","IC50 [1, 7]",IC50 (Human thrombin),"IC50 HNE (NE activity / elastase release) [1, 4]",efficacy relative to ursolic acid ([2]; fMLF-induced neutrophils)
CC1(C)[C@@H](O)CC[C@]2(C)[C@H]3C=CC4=C5[C@]6(CC[C@](C)(OC6=O)[C@@]5(C)O)CC[C@@]4(C)[C@]3(C)CC[C@@H]12 [Compound 11-1],> 10 µM,> 30 µM,7.62 ± 0.32 µM,> 30 µM,> 10 µM,> 30 µM,8.06 ± 0.4 µM,,,,,,,,,
O=C(C=Cc1ccc(O)c(O)c1)OC1CC(O)(C(=O)O)CC(O)C1O (centres unmarked) [Compound 1],> 10 µM,> 30 µM,> 30 µM,> 30 µM,1.54 ± 0.29 µM,> 30 µM,> 30 µM,-2.99 ± 1.35%,,,,,,,,
"O=C(/C=C/c1ccc(O)c(O)c1)O[C@@H]1C[C@](O)(C(=O)O)C[C@@H](O)[C@H]1O [Compound 3, Chlorogenic acid]",,> 30 µM,> 30 µM,,,> 30 µM,> 30 µM,-4.76 ± 3.36%,2.56 ± 1.06 µM,,,,> 10 µM,> 30 µM,,
"O=C(O)/C=C/c1ccc(O)c(O)c1 [CA, caffeic acid, reference compound]",,,,,,,,,1.42 ± 0.02 µM,> 10 µM,potently inhibit,> 30 µM,,,,
"NCCc1ccc(S(=O)(=O)F)cc1 [AEBSF, 4-(2-aminoethyl)-benzenesulphonyl fluoride, reference compound]",,,,,,,,,,,,,,251 ± 8.78 µM,,
"N#C/C=C1/C=C[C@@H](O)C[C@H]1O[C@@H]1O[C@H](CO)[C@@H](O)[C@H](O)[C@H]1O [Compound 18, menisdaurin]",> 10 µM,> 30 µM,> 30 µM,> 30 µM,> 10 µM,> 30 µM,> 30 µM,,,,,,,,,
"CC1=C2C3=CCC4[C@@]5(C)CC[C@H](O)C(C)(C)C5CC[C@@]4(C)[C@]3(C)CC[C@@]2(C(=O)O)CC[C@H]1C (some centres unmarked) [Compound 15-1, randialic acid B]",,> 30 µM,17.44 ± 0.16 µM,,,> 30 µM,16.98 ± 0.1 µM,,0.14 ± 0.09 µM,,good inhibitory effects,,0.06 ± 0.01 µM,24.9 ± 1.33 µM,good inhibitory effects,5 fold
"O=C(O)c1cc(O)c(O)c(O)c1 [THBA, 3,4,5-trihyroxybenzoic acid, reference compound]",> 10 µM,,,,1.14 ± 0.08 µM,,,,,,potently inhibit,,,,,
"O=C(O)C=Cc1cccc(O)c1 [Compound 3-HCA, 3-hydroxycinnamic acid, reference compound]",,,,,,,,-3.63 ± 3.91%,> 10 µM,> 10 µM,non-active,> 30 µM,,,,
"N#CC=C1C=CC(O)CC1OC1OC(CO)C(O)C(O)C1O (centres unmarked) [Compound 19, menisdaurin F]",,> 30 µM,> 30 µM,,,> 30 µM,> 30 µM,,> 10 µM,> 10 µM,,,,> 30 µM,,
"O=C(/C=C/c1ccc(O)c(O)c1)O[C@H]1[C@H](O)C[C@](O)(C(=O)O)C[C@H]1OC(=O)/C=C/c1ccc(O)c(O)c1 [Compound 7, 4,5-DCQA]",> 10 µM,> 30 µM,> 30 µM,> 30 µM,1.49 ± 0.38 µM,> 30 µM,> 30 µM,36.42 ± 2.25%,,,,,,,,
O=C(C=Cc1ccc(O)c(O)c1)OC1C(O)CC(O)(C(=O)O)CC1O (centres unmarked) [Compound 2],> 10 µM,> 30 µM,> 30 µM,> 30 µM,2.81 ± 1 µM,> 30 µM,> 30 µM,-3.43 ± 4.85%,,,,,,,,

# The next lines start with results.
"IC50 [1, 4]",IC50 (Human cathepsin G),IC50 (Human proteinase 3),IC50 (Human thrombin; [5]),IC50 [2],"IC50 [3, 6]",IC50 (Bovine chymotrypsin),Inh % (HNE inhibition) ([3]; Table S3),IC50 ([2]; Neutrophil),"IC50 ([1]; Homo sapiens, Neutrophil)",IC50 O2^.− generation [2],"IC50 [3, 8]",Compound,"IC50 [1, 7]",IC50 (Human thrombin),"IC50 HNE (NE activity / elastase release) [1, 4]",efficacy relative to ursolic acid ([2]; fMLF-induced neutrophils)
> 10 µM,> 30 µM,> 30 µM,> 30 µM,> 10 µM,> 30 µM,> 30 µM,,,,,,C[C@@H]1O[C@@H](O[C@H]2[C@H](O[C@H]3CC[C@]4(C)[C@H]5C=CC6=C7[C@]8(CC[C@](C)(OC8=O)[C@@]7(C)O)CC[C@@]6(C)[C@]5(C)CC[C@H]4C3(C)C)OC[C@H](O)[C@@H]2O[C@@H]2O[C@H](CO)[C@@H](O)[C@H](O)[C@H]2O)[C@H](O)[C@H](O)[C@H]1O [Compound 11],,,,
> 10 µM,> 30 µM,> 30 µM,> 30 µM,> 10 µM,> 30 µM,> 30 µM,,,,,,C[C@@H]1O[C@@H](O[C@H]2[C@H](OC(=O)[C@]34CCC(C)(C)[C@@H](O)[C@H]3C3=CC[C@@H]5[C@@]6(C)CC[C@H](O[C@@H]7OC[C@H](O)[C@H](O[C@@H]8O[C@H](CO)[C@@H](O)[C@H](O)[C@H]8O)[C@H]7O[C@@H]7O[C@@H](C)[C@H](O)[C@@H](O)[C@H]7O)C(C)(C)[C@@H]6CC[C@@]5(C)[C@]3(C)CC4)O[C@H](CO)[C@@H](O)[C@@H]2O)[C@H](O)[C@H](O)[C@H]1O [Compound 14],,,,
> 10 µM,,,,1.29 ± 0.09 µM,,,10.58 ± 4.03%,,,potently inhibit,> 30 µM,"O=C(/C=C/c1ccc(O)c(O)c1)O[C@H](Cc1ccc(O)c(O)c1)C(=O)O [RA, rosaminiric acid, reference compound]",,,,
7.99 ± 1.18 µM,> 30 µM,> 30 µM,> 30 µM,> 10 µM,> 30 µM,> 30 µM,,,,,,C[C@@H]1O[C@@H](O[C@H]2[C@H](OC(=O)[C@]34CC[C@@H](C)[C@@](C)(O)[C@H]3C3=CC[C@@H]5[C@@]6(C)CC[C@H](O[C@@H]7OC[C@H](O)[C@H](O[C@@H]8O[C@H](CO)[C@@H](O)[C@H](O)[C@H]8O)[C@H]7O[C@@H]7O[C@@H](C)[C@H](O)[C@@H](O)[C@H]7O)C(C)(C)[C@@H]6CC[C@@]5(C)[C@]3(C)CC4)O[C@H](CO)[C@@H](O)[C@@H]2O)[C@H](O)[C@H](O)[C@H]1O [Compound 15],,,,
,,,,,,,,> 10 µM,> 10 µM,,,"O=C(O)[C@]1(O)C[C@@H](O)[C@@H](O)[C@H](O)C1 [QA, quinic acid]",,,,
,,,,,,,-4.00 ± 3.42%,> 10 µM,> 10 µM,non-active,> 30 µM,"O=C(O)/C=C/c1ccc(O)cc1 [p-CA, p-coumaric acid, reference compound]",,,,
,,0.56 ± 0.06 µM,,,,,,,,,,"CC(C)(C)C(=O)Oc1ccc(S(=O)(=O)Nc2ccccc2C(=O)NCC(=O)O)cc1 [Elaspol, reference compound]",,,,
2.84 ± 1.02 µM,> 30 µM,> 30 µM,> 30 µM,4.77 ± 0.4 µM,> 30 µM,> 30 µM,,,,,,CC1(C)CC[C@]2(C(=O)O)CC[C@]3(C)C(=CC[C@@H]4[C@@]5(C)CC[C@H](O)C(C)(C)[C@@H]5CC[C@]43C)[C@@H]2[C@@H]1O [Compound 14-1],,,,
> 10 µM,,,,> 10 µM,,,0.06 ± 4.79%,,,non-active,> 30 µM,"COc1cc(/C=C/C(=O)O)ccc1O [FA, ferulic acid, reference compound]",,,,

# Source: publication PMC5041076, “Ilex kaushue and Its Bioactive Component 3,5-Dicaffeoylquinic Acid Protected Mice from Lipopolysaccharide-Induced Acute Lung Injury” (Scientific Reports, 2016)
